Data set [1] is described as follows: Inhibition of PP1 (unknown origin). The arrangement: species or system Homo sapiens.
Data set [2] can be described thus: Inhibition of bovine brain PP2A assessed as dephosphorylation of substrate using P32 labelled peptide DLDVPIPGRFDRRVSVAAE as substrate by radiometric analysis. Set-up: species or system Bos taurus.
A short description of data set [3]: Inhibition of rabbit liver PP2C assessed as dephosphorylation of substrate using P32 labelled peptide as substrate by radiometric analysis. The arrangement: species or system Oryctolagus cuniculus.
Data set [4] in a line: Toxicity in mouse assessed as lethal dose administered intraperitoneally. Conditions: in vivo, route ip.
Data set [5] deals with HepG2. The data set is described as follows: Anticancer activity against human HepG2 cells assessed as cell growth inhibition measured after 72 hrs by MTT assay. Conditions: HepG2, 72 h. Format: functional, cell-based.
Data set [6] has as its system HL-60. Put plainly: Anticancer activity against human HL-60 cells assessed as cell growth inhibition measured after 72 hrs by MTT assay. Conditions: HL-60, 72 h. Type of data set: functional, cell-based.
For data set [7], the system named is KB 3-1. The data set is described as follows: Anticancer activity against human KB 3-1 cells assessed as cell growth inhibition measured after 72 hrs by MTT assay. Type of data set: functional, cell-based. Conditions: KB 3-1, 72 h.
For data set [8], the species on record is Homo sapiens. Put plainly: Anticancer activity against human Liver cancer cell assessed as cell growth inhibition. Format: functional.
Data set [9] is described as follows: Anticancer activity against human oral cancer cell assessed as cell growth inhibition. Type of data set: functional, cell-based.
Data set [10] in a line: Anticancer activity against human leukaemia cell line assessed as cell growth inhibition. Type of data set: functional, cell-based.
Data set [11] deals with HepG2. The data set is described as follows: Anticancer activity against human HepG2 cells assessed as cell growth inhibition incubated for 2 days by MTT assay. Type of data set: functional, cell-based. The note with it: HepG2, 48 h.
In data set [12] the test system is Hep 3B2. The data set is described as follows: Anticancer activity against human Hep3B cells assessed as cell growth inhibition incubated for 48 hrs by MTT assay. Format: functional, cell-based.
Data set [13] is described as follows: Inhibition of PP (unknown origin). The arrangement: species or system Homo sapiens.
The test system of data set [14] is SMMC-7721. Put plainly: Anticancer activity against human SMMC-7721 cell assessed as cell growth inhibition measured after 24 to 48 hrs by SRB colorimetry assay. Format: functional, cell-based.
Data set [15] relates to Bel-7402. Put plainly: Anticancer activity against human Bel-7402 cell assessed as cell growth inhibition measured after 24 to 48 hrs by SRB colorimetry assay. Type of data set: functional, cell-based.
Data set [16] deals with Colon cancer cell line. Put plainly: Anticancer activity against human Colon carcinoma cell assessed as cell growth inhibition. Format: functional, cell-based.
The test system of data set [17] is HT-29. The data set is described as follows: Anticancer activity against human HT-29 cells assessed as cell growth inhibition measured after 72 hrs by MTT assay. Format: functional, cell-based. The note with it: HT-29, 72 h.
The subject of data set [18] is MCF7. The data set is described as follows: Anticancer activity against human MCF7 cells assessed as cell growth inhibition measured after 72 hrs by MTT assay. Format: functional, cell-based. Conditions: MCF7, 72 h.
Data set [19] relates to A-431. The data set is described as follows: Anticancer activity against human A-431 cells assessed as cell growth inhibition measured after 72 hrs by MTT assay. Type of data set: functional, cell-based. The note with it: A-431, 72 h.
The test system of data set [20] is DU-145. The data set is described as follows: Anticancer activity against human DU-145 cells assessed as cell growth inhibition measured after 72 hrs by MTT assay. Format: functional, cell-based. The note with it: DU-145, 72 h.
For data set [21], the system named is BE(2)-C. Put plainly: Anticancer activity against human BE2C cells assessed as cell growth inhibition measured after 72 hrs by MTT assay. Format: functional, cell-based.
Data set [22] deals with MIA PaCa-2. The data set is described as follows: Anticancer activity against human MIA PaCa-2 cells assessed as cell growth inhibition measured after 72 hrs by MTT assay. Conditions: MIA PaCa-2, 72 h. Type of data set: functional, cell-based.
Data set [23] concerns Hep 3B2. Put plainly: Anticancer activity against human Hep3B cells assessed as cell growth inhibition incubated for 48 hrs by MTS assay. Type of data set: functional, cell-based.
A short description of data set [24]: Cytotoxicity against human Bone marrow cell assessed as cell growth inhibition by MTS assay. Format: toxicity, cell-based. Conditions: bone marrow cells.
Data set [25] deals with Lung cancer cell line. The data set is described as follows: Anticancer activity against human Lung cancer cell line assessed as cell growth inhibition. Format: functional, cell-based.
Where [26] appears, read: Homo sapiens, Liver cancer cell.

Structures are written as SMILES. pIC50: −log10 of the molar value. In brackets after ≈: the same amount, converted by molar mass.

Regarding `C[C@]1(C(=O)O)[C@@H]2CC[C@@H](O2)[C@@]1(C)C(=O)O`, the negative-log IC50 (pIC50) in data set [1] was 6.25; in [2], 7.30; in data set [3], under 3.00; in data set [5] it was 3.66; in [6] it was 3.99; in data set [7], 4.10. In addition, the negative-log IC50 (pIC50) in [8] (setting [26]), in [9] and in data set [10] was under 4.30 in each case. In addition, the LD50 in data set [4] was found to be 1.8 mg/kg.
Regarding `O=C(O)[C@@H]1[C@H](C(=O)O)[C@H]2CC[C@@H]1O2` [listing 1 of 2 here], the negative-log IC50 (pIC50) in data set [8] (liver cancer cell) was 4.82; in [11], 4.81.
In the case of `CN1C(=O)[C@@]2(C)[C@@H]3CC[C@@H](O3)[C@@]2(C)C1=O`, the pIC50 in [12] is under 2.70.
On to `O=C1OC[C@@H]2[C@H]1[C@H]1CC[C@@H]2O1`, for which the negative-log IC50 (pIC50) was 4.21 in [1]; 4.00 in data set [2]; under 3.70 in data set [5]; under 3.70 in data set [6]; 3.95 in [7].
Consider `C[C@@]12COC(=O)[C@]1(C)[C@H]1CC[C@@H]2O1`, for which the negative-log IC50 (pIC50) in data set [1], in data set [2], in data set [5], in data set [6] and in [7] was under 3.70 throughout.
As to `C[C@@]12C(=O)OC(=O)[C@@H]1[C@H]1CC[C@@H]2O1`, the pIC50 in [1] is 6.18; in [2], 6.92; in data set [3], under 3.00; in data set [13], over 6.00.
Consider `O=C(O)[C@@H]1[C@H](C(=O)O)[C@H]2CC[C@@H]1O2` [listing 2 of 2 here], for which the negative-log IC50 (pIC50) in data set [8] (setting [26]) was 4.92; in [14], 4.90; in data set [15], 4.90.
Turning to `O=C(NCc1ccc(-c2ccccc2)cc1)C(CNC(=O)[C@H]1[C@@H](C(=O)O)[C@@H]2CC[C@H]1O2)Cc1ccco1` (stereo not given in full), the pIC50 is 7.82 in [16]; 7.82 in [17]; 7.57 in data set [18]; 7.35 in data set [19]; 7.59 in data set [20]; 7.54 in data set [21]. For the same molecule, in data set [22], the pIC50 was 7.25.
In the case of `C[C@@]12C(=O)N(c3ncc([N+](=O)[O-])s3)C(=O)[C@]1(C)[C@H]1CC[C@@H]2O1`, the negative logarithm of the IC50 (pIC50) in data set [8] (setting [26]) was over 6.00; in data set [12], 6.40.
For `C[C@@]12C(=O)N(c3nc4ccc(OC(F)(F)F)cc4s3)C(=O)[C@]1(C)[C@H]1CC[C@@H]2O1` [CANTHARIDIMIDE], the pIC50 in data set [8] (setting [26]) is 5.19; in data set [23] it was 4.80. Further, the IC50 in data set [24] was over 12.5 µg/mL.
Turning to `C[C@@]12C(=O)OC(=O)[C@]1(C)[C@H]1CC[C@@H]2O1` [CANTHARIDIN], the negative logarithm of the IC50 (pIC50) in data set [1] is 6.33; in data set [2], 7.40; in [3] it was under 3.00; in [5], 4.72; in data set [6], 5.57; in [7], 5.57. The negative-log IC50 (pIC50) in data set [16], in data set [8] (setting [26]), in data set [25], in data set [9] and in data set [10] was 5.70 each time. In addition, the LD50 in data set [4] is 1 mg/kg. In addition, the IC50 in data set [24] stood at 6.5 µg/mL (≈ 33.1 µM).
Regarding `O=C1OC(=O)C2C3CCC(O3)C12` (stereo not given) [DEMETHYL-CANTHARIDIN], the pIC50 is 5.70 in [1]; 6.43 in data set [2]; 3.67 in data set [5]; 4.80 in [6]; 4.16 in [7]; under 4.82 in [16]. Moreover, the pIC50 in data set [8] (setting [26]), in [9] and in [10] was under 4.82 throughout. Moreover, in [4], the LD50 was 4 mg/kg.
As for `O=C(O)[C@@H]1[C@H](C(=O)O)[C@H]2CC[C@@H]1O2` [ENDOTHALL], the pIC50 was 5.30 in data set [1], 6.01 in [2], under 3.00 in [3] and under 6.05 in data set [13]. Besides, the LD50 in [4] stood at 14 mg/kg.
